Measured values reported in article PMC4414180, “SKI2162, an inhibitor of the TGF-β type I receptor (ALK5), inhibits radiation-induced fibrosis in mice” (Oncotarget, 2015).

Assays:
p38 MAPK = target: T1, p38 MAPK (Homo sapiens, UniProt Q16539); experiment: p38 MAPK selectivity, radioisotope-based (33P) kinase assay; format: biochemical; details: Supplementary Table 1, unit inferred
T1 construct: GST/histidine tag; made in house; host or cells: insect cells
Protocol: (§1) The kinase activity of ALK5, ALK1, and p38 MAPK were assessed by measuring radiolabelled phosphate (^33P) incorporation into casein. ALK1 and p38 MAPK are closely related to ALK5, and were used for comparison with ALK5 in a SKI2162 selectivity study. IC50 values were calculated from dose–response curves. […]
(§2) www.impactjournals.com/oncotarget/ Oncotarget, Advance Publications 2014 SUPPLEMENTARY METHODS AND MATERIALS
(§3) Cell culture and reagents ACC-3′ (reverse). All samples were normalized to A human keratinocyte cell line (HaCaT) and GAPDH and expressed as the fold induction. Relative an SV40-transformed human fibroblast cell line expression levels were calculated using the comparative (WI38VA13) were cultured in Minimum Essential threshold method. All reactions were done in triplicate.
(§4) Media (Gibco/Life Technologies, USA) or in Dulbecco’s Histopathologic evaluation and fibrosis-related Modified Eagle’s Medium (Gibco/Life Technologies, gene expression in RIF tissues USA), respectively, with 10% fetal bovine serum (Gibco/
(§5) Life Technologies, USA), in a humidified 5% CO2 The skin and soft tissue of the irradiated leg was […]

ALK1 = target: T2, ALK1 (Homo sapiens, UniProt P37023); experiment: ALK1 selectivity, radioisotope-based (33P) kinase assay; format: biochemical; details: Supplementary Table 1, unit inferred
T2 construct: GST/histidine tag; made in house; host or cells: insect cells
Protocol: as §1, §2, §3, §4, §5

T1 sequence (Q16539 whole entry): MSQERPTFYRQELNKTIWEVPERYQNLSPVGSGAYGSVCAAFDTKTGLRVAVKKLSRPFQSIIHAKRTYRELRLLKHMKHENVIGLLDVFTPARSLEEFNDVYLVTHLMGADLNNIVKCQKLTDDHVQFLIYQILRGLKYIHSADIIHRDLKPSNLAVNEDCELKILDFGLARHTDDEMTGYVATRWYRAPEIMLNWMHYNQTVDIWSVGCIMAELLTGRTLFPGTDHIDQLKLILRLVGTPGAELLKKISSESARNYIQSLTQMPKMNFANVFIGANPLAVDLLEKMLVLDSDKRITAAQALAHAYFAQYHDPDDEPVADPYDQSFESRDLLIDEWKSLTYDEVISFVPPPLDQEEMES
T2 sequence (P37023 22-503, species assumed): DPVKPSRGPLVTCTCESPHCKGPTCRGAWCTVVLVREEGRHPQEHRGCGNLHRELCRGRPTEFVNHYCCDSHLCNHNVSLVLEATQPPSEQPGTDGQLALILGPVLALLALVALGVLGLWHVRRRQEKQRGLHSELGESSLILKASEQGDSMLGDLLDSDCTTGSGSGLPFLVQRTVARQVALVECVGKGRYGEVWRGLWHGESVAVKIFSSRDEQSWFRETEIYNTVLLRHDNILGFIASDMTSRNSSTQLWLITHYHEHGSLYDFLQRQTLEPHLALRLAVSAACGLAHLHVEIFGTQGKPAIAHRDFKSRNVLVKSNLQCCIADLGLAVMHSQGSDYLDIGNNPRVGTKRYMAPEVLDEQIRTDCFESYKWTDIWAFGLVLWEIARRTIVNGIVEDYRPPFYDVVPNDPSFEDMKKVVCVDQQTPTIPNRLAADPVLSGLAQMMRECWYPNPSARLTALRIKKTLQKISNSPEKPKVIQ

- IC50 (p38 MAPK): 0.379 µM
- IC50 (ALK1): 9.9 µM
SMILES: Cc1cccc(-c2nn3c(c2-c2ccnc4ccc(C(N)=O)cc24)CCC3)n1 [LY2157299]
